Measurements published in the supplement of paper PMC4862054.

Columns and labels:
Conditions in all cases: incubation time: 72 h
[1] = test system: BT-474; test: normalised response (% of control), CellTox Green; higher = less cell death (100 = DMSO, 0 = benzethonium chloride kill control)
Summary of the method: (§1)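 Each value is the plate-normalised signal at one concentration of the series. Breast cancer cell lines (20 µl suspension) were incubated 72 h in 384-well plates with compound at 5 concentrations in 10-fold steps over a compound-specific 10,000-fold range. CellTox Green and then CellTiter-Glo were read, and each plate was scaled to 0.1 % DMSO (100) and a positive kill control (0).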

[2] = test system: BT-549; test: as above
Summary of the method: as §1

[3] = test system: CAL-120; test: as above
Summary of the method: as §1

[4] = test system: CAL-148; test: as above
Summary of the method: as §1

[5] = test system: CAL-51; test: as above
Summary of the method: as §1

[6] = test system: CAL-85-1; test: as above
Summary of the method: as §1

[7] = test system: DU-4475; test: as above
Summary of the method: as §1

[8] = test system: HCC1143; test: as above
Summary of the method: as §1

[9] = test system: HCC1599; test: as above
Summary of the method: as §1

[10] = test system: HCC1937; test: as above
Summary of the method: as §1

[11] = test system: HDQ-P1; test: as above
Summary of the method: as §1

[12] = test system: Hs578T; test: as above
Summary of the method: as §1

[13] = test system: MCF-10A; test: as above
Summary of the method: as §1

[14] = test system: MDA-MB-231; test: as above
Summary of the method: as §1

[15] = test system: MDA-MB-436; test: as above
Summary of the method: as §1

[16] = test system: MDA-MB-453; test: as above
Summary of the method: as §1

[17] = test system: MFM-223; test: as above
Summary of the method: as §1

[18] = test system: BT-474; test: normalised response (% of control), CellTiter-Glo; higher = more viable cells (100 = DMSO, 0 = benzethonium chloride kill control)
Experimental: (§2)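 DSRT, 72 h incubation, CellTox Green / CellTiter-Glo readout. Signal is normalised to DMSO and benzethonium chloride controls. Value is the normalised response at dose 3.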

[19] = test system: BT-549; test: as above
Experimental: as §2

[20] = test system: CAL-120; test: as above
Experimental: as §2

[21] = test system: CAL-148; test: as above
Experimental: as §2

[22] = test system: CAL-51; test: as above
Experimental: as §2

[23] = test system: CAL-85-1; test: as above
Experimental: as §2

[24] = test system: DU-4475; test: as above
Experimental: as §2

[25] = test system: HCC1143; test: as above
Experimental: as §2

[26] = test system: HCC1599; test: as above
Experimental: as §2

[27] = test system: HCC1937; test: as above
Experimental: as §2

[28] = test system: HDQ-P1; test: as above
Experimental: as §2

[29] = test system: Hs578T; test: as above
Experimental: as §2

[30] = test system: MCF-10A; test: as above
Experimental: as §2

[31] = test system: MDA-MB-231; test: as above
Experimental: as §2

[32] = test system: MDA-MB-436; test: as above
Experimental: as §2

[33] = test system: MDA-MB-453; test: as above
Experimental: as §2

[34] = test system: MDA-MB-468; test: as above
Experimental: as §2

[35] = test system: MFM-223; test: as above
Experimental: as §2

[36] = test system: SK-BR-3; test: as above
Experimental: as §2

[37] = test system: MDA-MB-468; test: normalised response (% of control), CellTox Green; higher = less cell death (100 = DMSO, 0 = benzethonium chloride kill control)
Summary of the method: as §1

Q: How did the normalised response [1] turn out when `Nc1ncnc2c1c(COc1cccc(Cl)c1)nn2C1CCOCC1` (100 nM) was run?
A: 102%

Q: And the normalised response [2]?
A: 98.5%

Q: What about the normalised response [3] of the same molecule?
A: 103%

Q: And the normalised response [4]?
A: 107%

Q: What about the normalised response [5] of the same molecule?
A: 101%

Q: And the normalised response [6]?
A: 108%

Q: What about the normalised response [7] of the same molecule?
A: 109%

Q: What about the normalised response [8] of the same molecule?
A: 95.8%

Q: And the normalised response [9]?
A: 114%

Q: What about the normalised response [10] of the same molecule?
A: 112%

Q: What about the normalised response [11] of the same molecule?
A: 102%

Q: What about the normalised response [12] of the same molecule?
A: 51.6%

Q: And the normalised response [13]?
A: 109%

Q: What about the normalised response [14] of the same molecule?
A: 119%

Q: And the normalised response [15]?
A: 102%

Q: What about the normalised response [16] of the same molecule?
A: 111%

Q: And the normalised response [17]?
A: 103%

Q: And the normalised response [18]?
A: 102%

Q: And the normalised response [19]?
A: 98.8%

Q: And the normalised response [20]?
A: 101%

Q: And the normalised response [21]?
A: 109%

Q: And the normalised response [22]?
A: 84.5%

Q: And the normalised response [23]?
A: 103%

Q: And the normalised response [24]?
A: 100%

Q: What about the normalised response [25] of the same molecule?
A: 104%

Q: What about the normalised response [26] of the same molecule?
A: 102%

Q: And the normalised response [27]?
A: 95.5%

Q: What about the normalised response [28] of the same molecule?
A: 101%

Q: And the normalised response [29]?
A: 78.4%

Q: What about the normalised response [30] of the same molecule?
A: 110%

Q: What about the normalised response [31] of the same molecule?
A: 108%

Q: And the normalised response [32]?
A: 104%

Q: And the normalised response [33]?
A: 93.5%

Q: What about the normalised response [34] of the same molecule?
A: 102%

Q: And the normalised response [35]?
A: 105%

Q: What about the normalised response [36] of the same molecule?
A: 109%

Q: With `CN(C)CCN1C(=O)c2cccc3cc(N)cc(c23)C1=O` [Amonafide] (100 nM) as the molecule, how does the normalised response [1] read?
A: 98.5%

Q: And the normalised response [2]?
A: 106%

Q: And the normalised response [3]?
A: 97.8%

Q: And the normalised response [4]?
A: 99.3%

Q: What about the normalised response [5] of the same molecule?
A: 95.2%

Q: And the normalised response [6]?
A: 101%

Q: And the normalised response [7]?
A: 97.2%

Q: What about the normalised response [8] of the same molecule?
A: 114%

Q: What about the normalised response [9] of the same molecule?
A: 115%

Q: What about the normalised response [10] of the same molecule?
A: 104%

Q: What about the normalised response [11] of the same molecule?
A: 81.9%

Q: And the normalised response [13]?
A: 103%

Q: What about the normalised response [14] of the same molecule?
A: 81.1%

Q: What about the normalised response [15] of the same molecule?
A: 80.1%

Q: And the normalised response [16]?
A: 104%

Q: And the normalised response [37]?
A: 144%

Q: What about the normalised response [17] of the same molecule?
A: 106%

Q: And the normalised response [18]?
A: 106%

Q: What about the normalised response [19] of the same molecule?
A: 106%

Q: And the normalised response [20]?
A: 100%

Q: What about the normalised response [21] of the same molecule?
A: 93.8%

Q: And the normalised response [22]?
A: 79.1%

Q: What about the normalised response [23] of the same molecule?
A: 93.1%

Q: And the normalised response [24]?
A: 99.2%

Q: And the normalised response [25]?
A: 100%

Q: And the normalised response [26]?
A: 74.9%

Q: What about the normalised response [27] of the same molecule?
A: 98.8%

Q: What about the normalised response [28] of the same molecule?
A: 102%

Q: What about the normalised response [29] of the same molecule?
A: 100%

Q: What about the normalised response [30] of the same molecule?
A: 99.5%

Q: What about the normalised response [31] of the same molecule?
A: 111%

Q: What about the normalised response [32] of the same molecule?
A: 99.5%

Q: And the normalised response [33]?
A: 89.3%

Q: And the normalised response [34]?
A: 96.8%

Q: And the normalised response [35]?
A: 101%

Q: What about the normalised response [36] of the same molecule?
A: 95.3%

Q: Which normalised response [1] does the source give for `CC(C)(C#N)c1cc(Cn2cncn2)cc(C(C)(C)C#N)c1` [Anastrozole] (100 nM) here?
A: 102%

Q: What about the normalised response [2] of the same molecule?
A: 103%

Q: And the normalised response [3]?
A: 99.9%

Q: What about the normalised response [4] of the same molecule?
A: 106%

Q: What about the normalised response [5] of the same molecule?
A: 73.3%

Q: What about the normalised response [6] of the same molecule?
A: 101%

Q: And the normalised response [7]?
A: 103%

Q: And the normalised response [8]?
A: 102%

Q: And the normalised response [9]?
A: 102%

Q: What about the normalised response [10] of the same molecule?
A: 99.9%

Q: And the normalised response [11]?
A: 97.9%

Q: What about the normalised response [12] of the same molecule?
A: 87%

Q: And the normalised response [13]?
A: 74.4%

Q: And the normalised response [14]?
A: 106%

Q: What about the normalised response [15] of the same molecule?
A: 93.3%

Q: What about the normalised response [16] of the same molecule?
A: 102%

Q: And the normalised response [17]?
A: 100%

Q: And the normalised response [18]?
A: 104%

Q: And the normalised response [19]?
A: 104%

Q: And the normalised response [20]?
A: 101%

Q: And the normalised response [21]?
A: 98.8%

Q: What about the normalised response [22] of the same molecule?
A: 67.3%

Q: What about the normalised response [23] of the same molecule?
A: 98.6%

Q: And the normalised response [24]?
A: 107%

Q: And the normalised response [25]?
A: 97%

Q: What about the normalised response [26] of the same molecule?
A: 100%

Q: What about the normalised response [27] of the same molecule?
A: 95.3%

Q: What about the normalised response [28] of the same molecule?
A: 102%

Q: And the normalised response [29]?
A: 113%

Q: And the normalised response [30]?
A: 112%

Q: And the normalised response [31]?
A: 97.4%

Q: What about the normalised response [32] of the same molecule?
A: 104%

Q: What about the normalised response [33] of the same molecule?
A: 105%

Q: What about the normalised response [34] of the same molecule?
A: 91.3%

Q: What about the normalised response [35] of the same molecule?
A: 104%

Q: And the normalised response [36]?
A: 106%
